Values after ≈ are worked out from the molar mass of the structure shown.
system: Mycobacterium tuberculosis variant bovis BCG; experiment: microbe, parasite or virus in culture; assay type: functional

Point of comparison: `Cc1cccc(-c2nc(Nc3ccncn3)c3sccc3n2)n1`, MIC90 0.3 µM (≈ 0.0961 µg/mL). Against it:
- CCN(CC)c1ccc(-c2nn3c(-c4n[nH]c5c4CCC5)nnc3s2)cc1 — 23-fold higher, 7 µM (≈ 2.66 µg/mL)
- Nc1ccc(C(=O)C(=O)c2ccc(N)cc2)cc1 — within 1.5-fold, 0.4 µM (≈ 0.0961 µg/mL)
- CNc1nc(SC)nc2ccccc12 — the same, 0.3 µM (≈ 0.0616 µg/mL)
- COc1ccc(Nc2ccccc2N)cc1 — 3.7-fold higher, 1.1 µM (≈ 0.236 µg/mL)
- O=C(Nc1nnc(-c2ccc(Br)cc2)o1)c1cccc(C(F)(F)F)c1 — 5-fold higher, 1.5 µM (≈ 0.618 µg/mL)
- CC(C)Sc1ccc(C(=O)Nc2nc(-c3ccccn3)cs2)cc1 — 4-fold higher, 1.2 µM (≈ 0.427 µg/mL)
- COc1ccc(-c2cncc(-c3cc(N4CCN(CCO)CC4)nc(-c4ccccc4)n3)c2)cc1 — 26-fold higher, 7.9 µM (≈ 3.69 µg/mL)
- COc1ccc(CCNC(=O)c2nc(-c3ccc(OC)c(OC)c3)no2)cc1OC — 5-fold higher, 1.5 µM (≈ 0.62 µg/mL)
- CN(C)c1nc2scc(-c3ccccc3)c2c(=O)o1 — 5-fold higher, 1.5 µM (≈ 0.408 µg/mL)
- Clc1ccc(CCNc2cc(-c3ccccc3)nc3ncnn23)cc1 — 13-fold higher, 4 µM (≈ 1.4 µg/mL)
- CCOC(=O)CC[C@H](NC(=O)c1ccc(S(=O)(=O)Nc2ccc3nc(N)[nH]c(=O)c3c2)cc1)C(=O)OCC — 8-fold higher, 2.4 µM (≈ 1.31 µg/mL)
- CCCCOc1ccc(C(=O)Nc2nc(-c3ccccn3)cs2)cc1 — 5.3-fold higher, 1.6 µM (≈ 0.566 µg/mL)
- CC(c1nc2ccccc2s1)N(C)C(=O)c1ccc2c(c1)CC(c1ccccc1)OC2=O (stereo not given) — 5.3-fold higher, 1.6 µM (≈ 0.708 µg/mL)
- O=C(Nc1ccc(C(=O)N2CCCCC2c2nc3ccccc3s2)cc1)c1ccco1 (stereo not given) — 3-fold lower, 0.1 µM (≈ 0.0432 µg/mL)
- O=C(Nc1cccc(C(=O)N2CCCCC2c2nc3ccccc3s2)c1)c1cccs1 (stereo not given) — 3-fold lower, 0.1 µM (≈ 0.0448 µg/mL)
- O=C(Nc1ccccc1-c1nc(Cl)cs1)OCCC1CCCCN1 (stereo not given) — within 1.5-fold, 0.2 µM (≈ 0.0732 µg/mL)
- O=C(NCc1ccc(Oc2ccccc2)cc1)c1c(C(F)(F)F)nc2ccccn12 — within 1.5-fold, 0.2 µM (≈ 0.0823 µg/mL)
- Cc1ccc2nc(C)c(C(=O)NCc3cccs3)n2c1 — 1.7-fold higher, 0.5 µM (≈ 0.143 µg/mL)
- Nc1cccnc1Nc1ccc(Cl)cc1 — 3.7-fold higher, 1.1 µM (≈ 0.242 µg/mL)
- CC(c1nc2ccccc2s1)N(C)C(=O)c1cccc(NC(=O)c2cccs2)c1 (stereo not given) — the same, 0.3 µM (≈ 0.126 µg/mL)
- CCC(C)CC(=O)Nc1nc2c(s1)C(=O)CC(C(=O)N(C)Cc1cccc3ncccc13)C2 (stereo not given) — the same, 0.3 µM (≈ 0.139 µg/mL)
- COc1ccc2nc(C)cc(OCC(=O)Nc3cc(C)cc(C)c3)c2c1 — 1.7-fold higher, 0.5 µM (≈ 0.175 µg/mL)
- O=C(C=Cc1cccs1)N1CCN(Cc2ccc3c(c2)OCO3)CC1 — 5.7-fold higher, 1.7 µM (≈ 0.606 µg/mL)
- Cc1cccc(-c2nc(Nc3ccncn3)c3c(C)csc3n2)n1 — the same, 0.3 µM (≈ 0.1 µg/mL)
- Nc1nc2cc(-c3cncc(Oc4ccc(F)cc4)c3)ccc2[nH]1.O=C(O)C(F)(F)F.O=C(O)C(F)(F)F — 21-fold higher, 6.2 µM
- COc1ccc(S(=O)(=O)N(C)C)cc1C(=O)N[C@H]1CCN2CC(c3ccccc3)C[C@H]2C1 (stereo not given in full) — within 1.5-fold, 0.4 µM (≈ 0.183 µg/mL)
- COCc1nc(N2CCCNCC2)c2c(C)nn(-c3cccc(Cl)c3)c2n1 — within 1.5-fold, 0.4 µM (≈ 0.155 µg/mL)
- COc1ccccc1NC(=O)CN(Cc1ccco1)C(=O)c1cccc(NC(=O)c2cccs2)c1 — within 1.5-fold, 0.4 µM (≈ 0.196 µg/mL)
- Cc1cc(Cl)cc(C(=O)c2c(C(C)C)c(=O)[nH]c(=O)n2Cc2cc(F)nc(F)c2)c1 — within 1.5-fold, 0.4 µM (≈ 0.174 µg/mL)
- Cc1nc2ccccn2c1C(=O)NCc1ccc(Cl)cc1 — 6.7-fold higher, 2 µM (≈ 0.6 µg/mL)
- COc1ccc2nc(C)cc(OCC(=O)Nc3ccccc3OC)c2c1 — 4.7-fold higher, 1.4 µM (≈ 0.493 µg/mL)
- Cc1cc(/C=C/c2cccc(C(=O)O)c2)cc(Cl)c1OC[C@@H]1CCCN1C — 32-fold higher, 9.5 µM (≈ 3.67 µg/mL)
- Nc1nonc1-c1nc2c(-c3ccccc3)nccc2n1C1CCNCC1 — 1.7-fold higher, 0.5 µM (≈ 0.181 µg/mL)
- Cc1nc(-c2cccc(C(F)(F)F)c2)nc(N2CCNCC2)c1C — 1.7-fold higher, 0.5 µM (≈ 0.168 µg/mL)
- COCCCNC(=N)c1ccc(NC(=O)c2ccc(C(=O)Nc3ccc(C(=N)NCCCOC)cc3)cc2)cc1 — 1.7-fold higher, 0.5 µM (≈ 0.272 µg/mL)
- O=C(O)c1ccccc1COc1ccccc1 — 1.7-fold higher, 0.5 µM (≈ 0.114 µg/mL)
- O=C(Nc1nc(-c2ccccn2)cs1)c1ccc(-n2cccn2)cc1 — 2.3-fold higher, 0.7 µM (≈ 0.243 µg/mL)
- Cc1ccc(-n2nc(C)c3c(N4CCCNCC4)nc(C4CC4)nc32)cc1 — 2.7-fold higher, 0.8 µM (≈ 0.29 µg/mL)
- COCCNc1nc(N2CCCC2)c2c(c1C#N)CCN(C)C2 — 2.7-fold higher, 0.8 µM (≈ 0.252 µg/mL)
- CCCSc1ncccc1C(=O)Nc1ccccc1Nc1ccccc1 — 2.7-fold higher, 0.8 µM (≈ 0.291 µg/mL)
- CCc1cc(=O)[nH]c(-n2nc(C)cc2NC(=O)c2ccc(C(C)(C)C)cc2)n1 — 2.7-fold higher, 0.8 µM (≈ 0.304 µg/mL)
- COCCN1CCN(c2ccnc(-n3cnc4cc(C)c(C)cc43)n2)CC1 — 2.7-fold higher, 0.8 µM (≈ 0.293 µg/mL)
- CC1CNC(c2ccc(NC(=O)c3ccc(C(=O)Nc4ccc(C5=NC(C)CN5)cc4)cc3)cc2)=N1 (stereo not given) — 2.7-fold higher, 0.8 µM (≈ 0.384 µg/mL)
- Cc1csc(NC(=O)CSc2nc(C)c(C)n2Cc2ccc(Cl)cc2)c1C#N — 3-fold higher, 0.9 µM (≈ 0.388 µg/mL)
- O=C(c1cccc(-c2noc(-c3ccccc3)n2)c1)N1CCCCC1CCO (stereo not given) — 3-fold higher, 0.9 µM (≈ 0.34 µg/mL)
- Cc1ccc2nc(C(F)(F)F)c(C(=O)NCc3cc(Cl)cc(Cl)c3)n2c1 — 2-fold higher, 0.6 µM (≈ 0.241 µg/mL)
- Cc1ccc2nc(C(F)(F)F)c(C(=O)NCc3cccs3)n2c1 — 4-fold higher, 1.2 µM (≈ 0.407 µg/mL)
- CCc1ccc(CN2CCC3(CC2)OCCc2sccc23)s1 — 1.7-fold higher, 0.5 µM (≈ 0.167 µg/mL)
- c1cc2c(s1)CCOC21CCN(Cc2ccc3c(c2)OCCO3)CC1 — 5.3-fold higher, 1.6 µM (≈ 0.572 µg/mL)
- O=C(NC12CC3CC(CC(C3)C1)C2)c1cc2cc(Cl)ccc2[nH]1 — 2.7-fold higher, 0.8 µM (≈ 0.263 µg/mL)
- CCOc1ccc(-c2nc(CNCCc3ccc(F)cc3)cs2)cc1.O=C(O)C(=O)O — 33-fold higher, 9.9 µM
- N#Cc1cc(C(=O)COc2ccc(CC3SC(=O)NC3=O)cc2)ccc1N (stereo not given) — 3.7-fold higher, 1.1 µM (≈ 0.42 µg/mL)
- CCc1nc(N2CCNCC2)c2c(C)nn(-c3ccc(OC)cc3)c2n1 — 3.7-fold higher, 1.1 µM (≈ 0.388 µg/mL)
- COc1ccc(-c2csc(NC(=O)c3cnc(SC)nc3)n2)cc1 — 3.7-fold higher, 1.1 µM (≈ 0.394 µg/mL)
- O=C(NNC(=O)N1CCN(C(c2ccccc2)c2ccc(Cl)cc2)CC1)c1ccc([N+](=O)[O-])o1 (stereo not given) — 3.7-fold higher, 1.1 µM (≈ 0.532 µg/mL)
- Cc1ccc2nc(C(F)(F)F)c(C(=O)NCc3ccc4c(c3)OCO4)n2c1 — 6-fold higher, 1.8 µM (≈ 0.679 µg/mL)
- COc1ccc2nc(C)cc(OCC(=O)NCc3ccccc3)c2c1 — 12-fold higher, 3.6 µM (≈ 1.21 µg/mL)
- CCc1c(C)nc(-n2nc(C)cc2NC(=O)c2ccccc2SC)[nH]c1=O — 12-fold higher, 3.6 µM (≈ 1.38 µg/mL)
- C[C@@H](NCCc1nc(-c2cn(C)c3ccccc23)no1)C1CCCCC1.Cl — 31-fold higher, 9.4 µM
- CC(C)c1ccc2oc(-c3ccc(NC(=O)c4cccnc4)cc3)nc2c1 — 4-fold higher, 1.2 µM (≈ 0.429 µg/mL)
- Cc1ncc(C(=O)Nc2cccc(-c3cc(-c4c(Cl)cccc4Cl)no3)c2)c(-c2ccccc2)n1 — 4-fold higher, 1.2 µM (≈ 0.602 µg/mL)
- Cc1ccc(CNC(=O)c2cnn3c2NC(c2ccc(C)cc2)CC3C(F)F)cc1 (stereo not given) — 3-fold higher, 0.9 µM (≈ 0.369 µg/mL)
- C=CCNCCS(=O)(=O)c1cccc(Nc2ccc(-c3ccc(OC)nc3)cn2)c1 — 4.3-fold higher, 1.3 µM (≈ 0.552 µg/mL)
- Cc1ccc2nc(C)c(C(=O)NCc3ccco3)n2c1 — 3.3-fold higher, 1 µM (≈ 0.269 µg/mL)
- CCCCS(=O)(=O)Nc1ccc2cnn(C)c2c1 — 1.7-fold higher, 0.5 µM (≈ 0.134 µg/mL)
- N[C@@H]1CCN(c2nc(-c3ccccc3)nc3ccccc23)C1 — 4.7-fold higher, 1.4 µM (≈ 0.407 µg/mL)
- COc1ccc(-c2nc(CN3CCCC3c3cccs3)cs2)cc1OC (stereo not given) — 4.7-fold higher, 1.4 µM (≈ 0.541 µg/mL)
- CN(Cc1nc2ccccc2s1)C(=O)c1cccc(NC(=O)c2cccs2)c1 — 4.7-fold higher, 1.4 µM (≈ 0.571 µg/mL)
- O=C(Nc1nc(-c2cccnc2)cs1)c1ccc(Br)s1 — 4.7-fold higher, 1.4 µM (≈ 0.513 µg/mL)
- CCOC(=O)c1c(-c2ccccc2)oc2ccc(O)c(CN3CCCCC3)c12 — 4.7-fold higher, 1.4 µM (≈ 0.531 µg/mL)
- CCc1nn2c(C3CCCNC3)ccnc2c1-c1ccc(OC)cc1 (stereo not given) — 5-fold higher, 1.5 µM (≈ 0.505 µg/mL)
- c1ccc(Nc2nc(-c3ccccn3)cs2)nc1 — 3-fold higher, 0.9 µM (≈ 0.229 µg/mL)
- COc1ccc(CCNc2cc(-c3ccccc3)nc3ncnn23)cc1 — 3.3-fold higher, 1 µM (≈ 0.345 µg/mL)
- CCCc1cc(=O)[nH]c(-n2nc(C)cc2NC(=O)c2cc3ccccc3o2)n1 — 4.7-fold higher, 1.4 µM (≈ 0.528 µg/mL)
- Cc1ccc(Nc2cc(C)nn2-c2nc(C)cc(O)n2)cc1 — 1.7-fold higher, 0.5 µM (≈ 0.148 µg/mL)
- CCc1c(C)nc(-n2nc(C)cc2NC(=O)c2ccc(OC)cc2OC)[nH]c1=O — 4-fold higher, 1.2 µM (≈ 0.477 µg/mL)
- Cc1cc(=O)[nH]c(-n2nc(C)cc2NC(=O)C2(c3ccc(Cl)cc3)CCCC2)n1 — 4.3-fold higher, 1.3 µM (≈ 0.535 µg/mL)
- CCc1c(C)nc(-n2nc(C)cc2NC(=O)C(CC)c2ccccc2)[nH]c1=O (stereo not given) — 4-fold higher, 1.2 µM (≈ 0.455 µg/mL)
- O=C(c1ccccc1)N1CCN(c2ccccc2NC(=O)C(Cl)(Cl)Cl)CC1 — 3.3-fold higher, 1 µM (≈ 0.427 µg/mL)

Source: ChEMBL document CHEMBL2095176, “GSK Tuberculosis Screening Data”
